Data set [1] concerns indometacin ulcer of rats. The data set can be described thus: indometacin ulcer of rats (method of John and Adrian modified by Wilhelmi). It counts as in vivo, Albino rats of the strain SIV 50. The following applies: for ULCER PROTECTING EFFECT: indometacin 20 mg/kg, 24 h. Here is the method:
These tests were carried out according to the method of John and Adrian modified by Wilhelmi on the indometacin ulcer of rats (see Arzeimittelforschung Vol. 19 (1969) pages 45 et seq.).
The determination is carried out in the following manner.
Albino rats of the strain SIV 50 (S. Ivanovas, Kisslegg/allgau) having an initial weight of 250 to 300 grams were held in controlled temperature rooms at 20° to 22°C. in wire cages (Ebeco, Type 3 double width) on a standard diet (Altromin). After 48 hour feeding intervals the animals received 20 mg/kg rat of indometacin in 1.5% tragacanth (1 ml tragacanth solution per 100 grams of rat) applied introgastrally.
One hour after giving the indometacin there was dispensed orally to the animals the test substance. The rats remain otherwise fasting (water ad libitum)
Twenty four hours after giving the indometacin the animals were killed with […]. The stomach was resected, opened along the great curvature and washed under flowing water.
The ulcerative changes appear as dark, point or stria shaped spots on the mucosa. The evaluation was done according to the method of Munchow Arneimittedforschung Vol. 4 (1954) pages 341-344.

The test system of data set [2] is histamine ulcers of guinea pigs. In words: histamine type of ulcer of guinea pigs (method of Eagleton and Watt). The data set is classed as in vivo. Particulars: oral, histamine diphosphate 5 mg/kg. As for the experimental part:
The testing of the histamine type of ulcer of guinea pigs is carried out for example by the method of Eagleton and Watt (Peptic Ulcer, Pfeiffer, Munksgaard, Copenhagen, printed in Denmark by Aarhuus, Stiftsbogtrykkerie A/S Arhus ISBN 8716003225 pages 34-44). The entire disclosure of the Eagleton and Watt article is hereby incorporated by reference and relied upon. There were employed predominantly male guinea pigs weighing 300 to 400 grams and the test substance was applied orally after 24 hour feeding intervals and 12 hours deprivation of drinking water. One hour after giving the substance the guinea pigs were given the injection of histamine diphosphate (histamine acid phosphate) at a dosage of 5 mg/kg (the histamine diphosphate was employed in aqueous solution at a concentration of 1 mg histamine disphosphate/ml). The histamine diphosphate was injected introperitoneally. Three hours after the injection of histamine the animals were killed with CO2. The stomachs were resected and cut open along the small curvature and turned upside down over the examination finger. The ulcers were evaluated according to Munchow (Arzneimittelforschung Vol. 4 (1954 pages 341-344).
The calculated control index must in the order of magnitude between 5 and 15.

The nature of data set [3]: acute toxicity in the mouse (method of Miller and Tainter). The following applies: in vivo, oral application. Here is the method: The acute toxicity of the compound of the invention in the mouse (expressed by LD50 mg/kg; method of Miller and Tainter; Proc. Soc. Exper. Biol. a. Med. Vol 57 (1944) pages 261 et seq.) on oral application, for example is above 6000 mg/kg.

Data set [4] in a line: central nervous system influencing activity.
The nature of data set [5]: ulcer healing / antiulcer activity, general statement (test not specified). The data set is classed as in vivo.

Each structure is given as a SMILES string. Bounds are passed on as bounds.

As to `C=C1CC[C@@]2(OC1)O[C@H]1C[C@H]3[C@@H]4CC=C5C[C@@H](O)C[C@@H](O)[C@]5(C)[C@H]4[C@H](O)C[C@]3(C)[C@H]1[C@@H]2C` [Helleborus main sapogenin, spiro-5,25(27)-diene-1β,3β,11α-triol], the “ULCER PROTECTING EFFECT” value in data set [1] (daily dosage 50 mg/kg, oral) stood at 58%; in data set [1] (daily dosage 100 mg/kg, oral), 78%; in data set [1] (daily dosage 200 mg/kg, oral) it was 80%. Further, the anti-ulcer activity result in data set [1] (indometacin ulcers of rats, oral) is on record as “good anti-ulcer activity”; in data set [2], “good anti-ulcer activity”. Besides, the minimal effective dose in data set [1] (po, orally, above mentioned animal experiments (indometacin ulcers of rats, histamine ulcers of guinea pigs), read-out: lowest effective dosage) worked out at 50 mg/kg. Moreover, the LD50 (commonly the dose at which mortality reaches 50%) in data set [3] is above 6000 mg/kg. Besides, the muscle relaxing activity result in the data set “muscle relaxing activity” is on record as “muscle relaxing”. Besides, the “central nervous system influencing activity” value in data set [4] is listed as “central nervous system influencing activity has been established”. The “antiulcer activity compared with Biogastrone” value in data set [5] (comparison with the known medicine Biogastrone) is listed as “comparable to the activity of the known medicine Biogastrone”. For the same compound, the ulcer healing activity entry in data set [5] (in vivo) is listed as “has an ulcer healing activity”.
